In data set [1] the target is T1, HRP (Armoracia rusticana, UniProt P00433).
T1 sequence (P00433 31-338): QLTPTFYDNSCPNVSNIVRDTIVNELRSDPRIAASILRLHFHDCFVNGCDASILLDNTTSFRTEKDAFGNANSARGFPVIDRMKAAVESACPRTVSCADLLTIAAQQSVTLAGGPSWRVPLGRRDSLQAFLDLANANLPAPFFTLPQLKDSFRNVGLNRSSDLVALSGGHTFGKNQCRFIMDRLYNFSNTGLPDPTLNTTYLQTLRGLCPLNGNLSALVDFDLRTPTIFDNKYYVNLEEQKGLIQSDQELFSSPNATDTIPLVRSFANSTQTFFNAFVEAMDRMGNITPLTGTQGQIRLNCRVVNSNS
The experiment in a line: Comparison of signal intensity (Example 17): maximum signal with HRP. The class given is biochemical, horseradish. The conditions noted are these: 3.5×10^−16 moles of HRP. As for the experimental part: The maximum signal produced by each of compounds 40-51 was compared by reacting a 100 μL aliquot of reagent compositions comprising 0.025 M tris buffer, pH 8, 2.5 mM urea peroxide, 4 mM p-hydroxycinnamic acid, 0.5 mM EDTA, 0.1% Tween 20, and either 1 mM, 0.3 mM, 0.15 mM or 0.05 mM of the test compound with 3.5×10^−16 moles of HRP. Each reagent reached maximum light intensity in 1-3 minutes.

Data set [2] has as its target T1, HRP. Briefly: Comparison of signal intensity (Example 10): maximum signal with HRP. It counts as biochemical, horseradish. The conditions noted are these: 3×10^−4 M compound, 0.025 M tris pH 8, 2.5 mM urea peroxide, 4 mM p-hydroxycinnamic acid; 3.5×10^−16 moles of HRP. As for the experimental part:
The maximum signal produced by each of compounds 14, and 27-29 was compared by reacting a 100 μL aliquot of reagent compositions comprising 0.025 M tris buffer, pH 8, 2.5 mM urea peroxide, 4 mM p-hydroxycinnamic acid, 0.5 mM EDTA, 0.1% Tween 20, and 3×10^−4 M of the test compound with 3.5×10^−16 moles of HRP. Each reagent reached maximum light intensity in about 1 minute.

Data set [3] has as its target T1, HRP. The experiment in a line: Comparison of signal intensity (Example 9): chemiluminescence on reaction of reagent with HRP. It counts as biochemical, horseradish. The conditions noted are these: 3.5×10^−16 moles of HRP. As for the experimental part: Reagent compositions comprising 0.01 M tris buffer, pH 8, 0.5 mM urea peroxide, 0.1 mM p-phenylphenol, […], 0.025% Tween 20, and 5×10^−5 M of each compound in the table below except the compound designated Ref. 1 were tested for production of chemiluminescence by reacting a 100 μL aliquot with 3.5×10^−16 moles of HRP. The reagent formulation for Ref. 1 comprised 0.05 M tris buffer, pH 8.6, 0.25 mM urea peroxide, 0.05 mM p-phenylphenol, 0.5 mM EDTA, 0.0125% Tween 20, and 3.3×10^−4 M Ref. 1. For comparison, data are provided for reference compounds 1 and 2.

The test system of data set [4] is peroxidase. The experiment in a line: Chemiluminescence on reaction with peroxide and a peroxidase (general). It counts as biochemical. The conditions noted are these: mixtures of double bond isomers. From the text: Reaction of ketene dithioacetal compounds of formula I, including those shown above, with peroxide and a peroxidase generate chemiluminescence which rapidly reaches very high intensity. Maximum light emission is achieved in one minute or less and remains constant for several minutes. […] No other known chemiluminescent peroxidase substrate generates high intensity chemiluminescence so rapidly. This kinetic behavior in unexpected and contrasts with the chemiluminescence time profile of structurally related compounds disclosed in the aforementioned U.S. Pat. No. 5,922,558. For example, a compound having the formula:
[drawing 18] reacted with HRP was disclosed to reach maximum chemiluminescence intensity in 7 min. The ability of the compounds of the present invention to reach a stable maximum light intensity so rapidly makes them more suitable than other chemiluminescent compounds for peroxidase detection in the rapid high throughput assays in demand today.
Compounds and compositions of the present invention are useful in a method to produce chemiluminescence by reaction with a peroxidase. Reaction of a compound of the invention with a peroxidase and a peroxide in an aqueous buffer solution produces easily detectable visible chemiluminescence. Light intensity reaches a maximum level rapidly at room temperature, typically in about 1 minute. […]

The target of data set [5] is T2, HRP-labeled antibody (Armoracia rusticana, UniProt P00433).
T2 sequence (P00433 31-338): T1 sequence (P00433 31-338)
The experiment in a line: Western blot of β-galactosidase via HRP-labeled antibody on PVDF membrane. It counts as biochemical. The procedure:
A western blot assay of β-galactosidase as the test antigen was conducted according to the procedure described in U. K. Laemmli, Nature (London), 227, 680 (1970) using a PVDF membrane. β-Galactosidase standards in the range of 5000-5 pg. The detection reagent containing Compound 1 permitted detection to be performed in under 1 minute.

Data set [6] can be described thus: Solubility in the aqueous formulation. It counts as physicochemical. The conditions noted are these: 0.025 M tris pH 8 formulation with 0.1% Tween 20.
Data set [7] has as its target T1, HRP. Briefly: Chemiluminescent detection of HRP with compounds 52 and 53. The conditions noted are these: 3×10^−4 M compound, HRP 1.4×10^−16 to 1.4×10^−21 moles. It counts as biochemical, horseradish. As for the experimental part:
Reagent compositions comprising 0.025 M tris buffer, pH 8.0, 2.5 mM urea peroxide, 4 mM p-hydroxycinnamic acid, 0.5 mM EDTA, 0.1% Tween 20 and 3×10^−4 M compound 52 or 53 were tested for production of chemiluminescence by reacting triplicate 100 μL aliquots with 10 μL of HRP in the range 1.4×10^−16 to 1.4×10^−21 moles. […] The relation between peak chemiluminescence intensity and amount of enzyme is depicted in FIG. 8.

Data set [8] concerns the target T1, HRP. Briefly: Stability of working solutions by solution assay. It counts as physicochemical, horseradish. As for the experimental part: Reagent stability of the working solutions of compound 53 and compound 46 was assessed by preparing the working solution by combining 50 μL aliquots of the two component solutions and storing the mixed solutions at 4° C. or room temperature. The working solution contained 0.025 M tris buffer, pH 8, 2.5 mM urea peroxide, 4 mm p-hydroxycinnamic acid, 0.5 mM EDTA, 0.1% Tween 20, and 0.05 mM of the substrate. Chemiluminescent assays were run with 3.5×10^−16 moles of HRP at 25° C. Maximum intensity results were compared to the values obtained with fresh reagent prepared from the individual components stored at 4° C. […] The composition containing compound 53 was unchanged after four months at 4° C., that containing compound 46 was unchanged after 9 months at 4° C.

Data set [9] concerns the target T1, HRP. The experiment in a line: Chemiluminescent detection of HRP with compound 1. It counts as biochemical, horseradish. As for the experimental part:
Reagent compositions comprising 0.01 M tris buffer, pH 7.0, 0.5 mm urea peroxide, 0.1 mM p-phenylphenol, 1 mM EDTA, 0.025% Tween 20 and 5×10^−5 M compound 1 were tested for production of chemiluminescence by reacting triplicate 100 μL aliquots with 10 μL of HRP in the range 1.4×10^−15 to 1.4×10^−20 moles. Light production ensued upon mixing and reached maximum intensity in about 1 min.

The mark [10] stands for this setting: 1 mM test compound (Formulation 1.0).
Setting [11] is: 5×10^−5 M compound, 0.01 M tris pH 8, 0.5 mM urea peroxide, 0.1 mM p-phenylphenol, 0.025% Tween 20.

Consider `O=S(=O)([O-])CCCOCCCN1c2ccccc2C(=C2Sc3ccccc3S2)c2ccccc21.[Na+]` [Compound 50], for which, in [1] (0.3 mM test compound), the Signal/Background is on record as 1651.
Take `O=S(=O)([O-])CCCSC(SCc1ccccc1)=C1c2ccccc2N(c2ccccc2)c2ccccc21.[Na+]` [Compound 42]: the Signal/Background in [1] (setting [10]) amounted to 9100.
The compound `O=S(=O)([O-])CCCSC(SCc1ccccc1)=C1c2ccccc2N(Cc2ccccc2)c2ccccc21.[Na+]` [Compound 38] showed a Signal/Background in [2] of 26000.
Turning to `CCCCCCCCSC(SCCCS(=O)(=O)[O-])=C1c2ccccc2N(c2ccccc2)c2ccccc21.[Li+]` [Compound 13], the Signal/Background in [3] (setting [11]) is 7626.
In data set [1] (0.3 mM test compound), `OC1CSC(=C2c3ccccc3N(c3ccccc3)c3ccccc32)SC1` (centres unmarked) [Compound 45] showed a Signal/Background of 2102.
`CCCCCCCCSC(SC)=C1c2ccccc2N(c2ccccc2)c2ccccc21` [Compound 6]: the generation of chemiluminescence entry in [4] was “Compounds 3, 4 and 6 were obtained as mixtures of double bond isomers. Each of these compounds generates chemiluminescence in the present invention”.
Regarding `CN1c2ccccc2C(=C(OP(=O)([O-])[O-])Sc2ccccc2)c2ccccc21.[Na+].[Na+]` [Ref. 1, reference compound], in data set [5] (β-galactosidase), the “chemiluminescence intensity and exposure needed, compared with the compound 1 reagent” value is “lower intensity chemiluminescence and required longer exposures”; the “lower abundance bands able to be imaged” value is “not possible to image”. The compound further yielded a Signal/Background in [3] (Ref. 1 formulation: 3.3×10^−4 M, 0.05 M tris pH 8.6, 0.25 mM urea peroxide, 0.05 mM p-phenylphenol) of 53.
`O=S(=O)([O-])CCCOC1CSC(=C2c3ccccc3N(Cc3ccccc3)c3ccccc32)SC1.[Na+]` (centres unmarked) [Compound 47] yielded a Signal/Background in [1] (setting [10]) of 7228.
As to `CN1c2ccccc2C(=C2Sc3ccccc3S2)c2ccccc21` [Compound 51], the Signal/Background in data set [1] (0.05 mM test compound) was found to be 4264. The “solubility in the aqueous formulation” value in data set [6] is recorded as “very poorly soluble”.
For `O=S(=O)([O-])CCCOCCCSC(SCCCO)=C1c2ccccc2N(Cc2ccccc2)c2ccccc21.[Na+]` [Compound 52], in data set [1] (0.15 mM test compound), the Signal/Background came to 5840. Besides, the “rise of light to maximum intensity” value in data set [7] is “reached maximum intensity rapidly”.
In turn, `COC(Sc1ccccc1)=C1c2ccccc2N(C)c2ccccc21` [Ref. 2, reference compound] came in with a Signal/Background in data set [3] (setting [11]) of 325.
In data set [1] (setting [10]), `O=S(=O)([O-])CCCSC(SCc1ccc(Cl)cc1)=C1c2ccccc2N(Cc2ccccc2)c2ccccc21.[Na+]` [Compound 41] yielded a Signal/Background of 14000.
For the compound `CSC(SCCCOCCCS(=O)(=O)[O-])=C1c2ccccc2N(Cc2ccccc2)c2ccccc21.[Na+]` [Compound 53], in data set [8] (four months at 4° C.), the “working solution composition after storage” value is listed as “unchanged”. For the same compound, the “reagent performance on storage of working solution” value in data set [8] (up to three weeks at room temperature, 0.05 mM substrate) is given as “no deterioration of reagent performance”. Moreover, the Signal/Background in data set [1] (0.15 mM test compound) worked out at 5742. Besides, the “rise of light to maximum intensity” value in [7] was “reached maximum intensity rapidly”.
Consider `CSC(SC)=C1c2ccccc2N(c2ccccc2)c2ccccc21` [Compound 1], for which, in [9] (5×10^−5 M compound 1, pH 7.0, p-phenylphenol), the “time to reach maximum intensity” value is “about 1 min”. Also, in data set [9] (HRP 1.4×10^−15 to 1.4×10^−20 moles), the “log-log plot of chemiluminescence intensity vs. amount of enzyme” value was “linear over the entire range tested”. Besides, the “lower abundance bands able to be imaged” value in data set [5] (β-galactosidase) is reported as at most 1 pg. Besides, the “time in which detection could be performed” value in data set [5] (β-galactosidase standards 5000-5 pg) is recorded as “under 1 minute”. Also, the Signal/Background in [3] (setting [11]) was 8060.
`CSC(SCCCS(=O)(=O)[O-])=C1c2ccccc2N(Cc2ccc(Cl)cc2)c2ccccc21.[Na+]` [Compound 28] displayed a Signal/Background in [2] of 6717.
With `c1ccc(CSC(SCc2ccccc2)=C2c3ccccc3N(c3ccccc3)c3ccccc32)cc1` [Compound 3], in data set [4], the generation of chemiluminescence result is “Compounds 3, 4 and 6 were obtained as mixtures of double bond isomers. Each of these compounds generates chemiluminescence in the present invention”.
In the case of `CSC(SC)=C1c2ccccc2N(C)c2ccccc21` [Compound 2], the Signal/Background in data set [3] (setting [11]) is on record as 953.
`c1ccc(CN2c3ccccc3C(=C3SCCOCCOCCOCCOCCS3)c3ccccc32)cc1` [Compound 49] registered a Signal/Background in [1] (0.05 mM test compound) of 4853. Further, in data set [6], the “solubility in the aqueous formulation” value is recorded as “very poorly soluble”.
For `CSC(SC)=C1c2ccccc2N(Cc2ccc(O)cc2)c2ccccc21` [Compound 40], the Signal/Background in [1] (setting [10]) was 4011.
In data set [1] (setting [10]), `O=P([O-])([O-])OCCCOC1CSC(=C2c3ccccc3N(Cc3ccccc3)c3ccccc32)SC1.[Na+].[Na+]` (centres unmarked) [Compound 48] returned a Signal/Background of 4219.
On to `COc1ccc(CN2c3ccccc3C(=C(SC)SCCCS(=O)(=O)[O-])c3ccccc32)cc1.[Na+]` [Compound 29], for which the Signal/Background in data set [2] was 6621.
Turning to `CSC(SCCCOS(=O)(=O)[O-])=C1c2ccccc2N(Cc2ccccc2)c2ccccc21.[Na+]` [Compound 55], the Signal/Background in data set [1] (0.3 mM test compound) is recorded as 5408.
The compound `CSC(SCCCSCCCS(=O)(=O)[O-])=C1c2ccccc2N(c2ccccc2)c2ccccc21.[Na+]` [Compound 54] came in with a Signal/Background in data set [1] (0.15 mM test compound) of 2502.

These data come from US8106203B2, “Assay methods using chemiluminescent detection of peroxidase” (Lumigen, Inc., priority 2001, dated 2012).
